The record followed here is PubChem BioAssay (NCI).

Holding throughout (assay): NCI tumour cell line growth inhibition, 48 h
In assay [1] the test system is CCRF-CEM leukemia.
The subject of assay [2] is DU-145 prostate.
Assay [3] concerns HL-60(TB) leukemia.
In assay [4] the test system is MDA-MB-231 breast.
Assay [5] has as its system MDA-MB-435.
Assay [6] concerns NCI-H460 lung.
Assay [7] relates to NCI/ADR-RES ovarian.
The subject of assay [8] is UACC-62 melanoma.
Assay [9] deals with RPMI-8226 leukemia.

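Assay format: 96-well plates, 48-hour exposure. TGI: total growth inhibition.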

For `O=C1C(/C=C/c2ccc(Cl)cc2)=NNC2N1N=C1NC(=O)C3(NN12)c1ccccc1-c1ccccc13` (stereo not drawn), the TGI in [1], in [2], in [3], in [4], in assay [5] and in assay [6] was above 100 µM each time. For the same compound, the TGI in assay [7] and in assay [8] was above 100 µM each time.

`Nc1c(-c2nc3ccccc3s2)c2ccc([N+](=O)[O-])cc2c(=O)n1-c1cccc(C(=O)O)c1`: the TGI in assay [1] was 56.8 µM; in [2], 64.7 µM; in [3], 37.7 µM; in assay [4] it was 37.8 µM; in assay [5] it was above 100 µM; in assay [6] it was above 100 µM. Moreover, the TGI in assay [7] was above 100 µM; in [8] it was 58.6 µM.

For the compound `COCC1OC(OC2C3=C(C(C)C)CCC3(C)/C=C3\C(CCC3(O)COC)C(C)C2O)C(O)C2OC3OC12OC3(C)C1CO1` (stereo not drawn), the TGI is 59.6 µM in assay [1]; above 100 µM in assay [2]; 54.1 µM in assay [3]; above 100 µM in assay [4]; above 100 µM in [5]; above 100 µM in assay [6]. Also, the TGI in assay [9] and in assay [8] was above 100 µM in each case.

As for `CCCCC(=O)Nc1ccc2cc(C(=O)OC)c(ON3C(=O)c4ccccc4C3=O)nc2n1`, the TGI is above 100 µM in assay [1]; above 100 µM in assay [4]; above 100 µM in assay [5]; 51.4 µM in assay [6]; above 100 µM in assay [7]; above 100 µM in assay [9].

Turning to `O=C/C(=C(/Br)I)c1ccccc1`, the TGI was 0.798 µM in [1]; 29.2 µM in [2]; 1.13 µM in [3]; 7.44 µM in assay [4]; 6.74 µM in [5]; 26.4 µM in [6]. Moreover, the TGI in assay [7] amounted to 15.2 µM; in assay [8] it was 44.4 µM.

Turning to `CC(=O)OCC1OC(n2c3c(c(-c4ccco4)c(C#N)c2=S)CCC3)C(OC(C)=O)C(OC(C)=O)C1OC(C)=O` (stereo not drawn), the TGI in assay [2], in assay [3], in [5], in assay [6], in assay [7] and in assay [9] was above 100 µM in each case. The compound further had a TGI in [8] above 100 µM.

Regarding `O=C(/C=C/c1ccc(Cl)cc1)Oc1ccc(/C=C2\CCCCC2=O)cc1`, the TGI in assay [1], in assay [2], in [3], in assay [4], in assay [5] and in [6] was above 100 µM throughout. In addition, the TGI in assay [9] and in [8] was above 100 µM throughout.

Take `CCOc1ccc(/C(O)=C/c2nc3ccccc3nc2/C=C(\O)c2ccc(OCC)cc2)cc1`: the TGI in assay [1], in assay [2], in assay [3], in [4], in assay [5] and in [6] was above 100 µM each time. In addition, the TGI in assay [9] and in [8] was above 100 µM throughout.

Turning to `CCCc1c(OC)c(=O)c2c(OC)cc(OC)c3c4c(OC)cc(OC)c5c(=O)c(OC)c(CCC)c(c1c23)c54`, the TGI was determined as 24.6 µM in assay [2]; 10.4 µM in [3]; 18.3 µM in [4]; 29.6 µM in assay [5]; 34.5 µM in [6]; 47.4 µM in assay [7]. This compound displayed a TGI in assay [8] of 24.1 µM.

With `Cn1c(=O)cc(NCc2ccc(Cl)cc2)[nH]c1=O`, the TGI in assay [4], in assay [5], in assay [6], in assay [7], in assay [9] and in assay [8] was above 100 µM each time.

As for `COc1ccc(C2SCC(=O)N2c2ccc(-n3c(-c4ccccc4)nc4ccccc4c3=O)cc2)cc1OC` (stereo not drawn), the TGI in assay [1], in assay [3], in [4], in [5], in [6] and in [7] was above 100 µM throughout. Further, the TGI in assay [9] and in assay [8] was above 100 µM in each case.

As for `COc1cc(C2c3cc4c(cc3OC(Nc3ccc(C(=O)O)cc3)C2C)OCO4)cc(OC)c1OC` (stereo not drawn), the TGI in [1] is above 41.8 µM; in [3], 0.541 µM; in [4], 2.06 µM; in assay [5], 0.265 µM; in [6], above 100 µM; in [7], 4.9 µM. Also, the values for the TGI in [9] and in assay [8] were 25 µM and above 61.9 µM, respectively.

As to `COc1cc(CCCOC(=O)/C=C/c2ccc(O)c(O)c2)cc(O)c1O`, the TGI in [1] is above 100 µM; in [2], above 100 µM; in assay [3], 84.1 µM; in assay [4] it was 91.7 µM; in [5], above 100 µM; in assay [6] it was above 100 µM. Further, the TGI is above 100 µM in assay [9] and 85.1 µM in assay [8].
